In brackets after ≈: the same amount, converted by molar mass.
Assays:
[1] = molecular target: Nitric oxide synthase, inducible (Rattus norvegicus, UniProt Q06518); assay: Inhibition of rat iNOS after 12 to 24 hrs in presence of [gamma32P]ATP by electrophoretic mobility shift assays
[2] = test system: Mycobacterium tuberculosis; assay: Antitubercular activity against Mycobacterium tuberculosis H37Rv; type: functional
Acetylcholinesterase [3] = molecular target: T1, Acetylcholinesterase (Bos taurus, UniProt P23795); assay: Inhibition of bovine erythrocyte AchE using acetylthiocholine iodide as substrate after 15 mins by spectrophotometric analysis
T1 sequence (P23795 whole entry): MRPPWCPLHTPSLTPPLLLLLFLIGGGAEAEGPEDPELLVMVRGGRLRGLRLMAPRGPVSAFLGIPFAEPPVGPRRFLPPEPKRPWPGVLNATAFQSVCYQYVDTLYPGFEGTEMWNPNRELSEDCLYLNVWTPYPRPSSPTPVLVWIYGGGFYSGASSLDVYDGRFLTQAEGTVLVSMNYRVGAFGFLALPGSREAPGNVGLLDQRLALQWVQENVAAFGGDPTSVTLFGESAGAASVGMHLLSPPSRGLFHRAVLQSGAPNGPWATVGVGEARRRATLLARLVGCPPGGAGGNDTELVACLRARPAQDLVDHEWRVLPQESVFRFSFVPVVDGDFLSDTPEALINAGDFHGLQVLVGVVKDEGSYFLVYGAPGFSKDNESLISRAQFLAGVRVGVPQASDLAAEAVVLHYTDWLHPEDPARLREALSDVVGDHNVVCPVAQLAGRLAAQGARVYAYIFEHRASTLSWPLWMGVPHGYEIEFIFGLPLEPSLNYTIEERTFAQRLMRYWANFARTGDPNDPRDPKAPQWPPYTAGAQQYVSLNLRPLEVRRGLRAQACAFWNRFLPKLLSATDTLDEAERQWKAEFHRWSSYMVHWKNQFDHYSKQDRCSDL

[4] = molecular target: T2, Phospholipase A2, membrane associated (Homo sapiens) (UniProt P14555); assay: Inhibition of human sPLA2-2A at 100 uM relative to control
T2 sequence (whole entry): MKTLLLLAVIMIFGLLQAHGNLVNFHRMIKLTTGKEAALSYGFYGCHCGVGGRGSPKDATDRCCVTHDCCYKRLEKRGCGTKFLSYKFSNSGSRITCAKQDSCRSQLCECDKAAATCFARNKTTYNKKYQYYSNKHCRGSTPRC

[5] = molecular target: T2, Phospholipase A2, membrane associated (Homo sapiens); assay: Inhibition of human sPLA2-2A assessed as reduction in PGE2 level at 10 uM relative to control
[6] = molecular target: T2, Phospholipase A2, membrane associated (Homo sapiens); assay: Inhibition of human sPLA2-2A assessed as reduction in nitric oxide level at 10 uM relative to control
Acetylcholinesterase [7] = molecular target: Acetylcholinesterase (Electrophorus electricus, UniProt O42275); assay: Inhibition of electric eel AChE using acetylthiocholine iodide as substrate measured for 120 secs by spectrophotometric analysis
Acetylcholinesterase (Electrophorus electricus, UniProt O42275), sequence (O42275 whole entry): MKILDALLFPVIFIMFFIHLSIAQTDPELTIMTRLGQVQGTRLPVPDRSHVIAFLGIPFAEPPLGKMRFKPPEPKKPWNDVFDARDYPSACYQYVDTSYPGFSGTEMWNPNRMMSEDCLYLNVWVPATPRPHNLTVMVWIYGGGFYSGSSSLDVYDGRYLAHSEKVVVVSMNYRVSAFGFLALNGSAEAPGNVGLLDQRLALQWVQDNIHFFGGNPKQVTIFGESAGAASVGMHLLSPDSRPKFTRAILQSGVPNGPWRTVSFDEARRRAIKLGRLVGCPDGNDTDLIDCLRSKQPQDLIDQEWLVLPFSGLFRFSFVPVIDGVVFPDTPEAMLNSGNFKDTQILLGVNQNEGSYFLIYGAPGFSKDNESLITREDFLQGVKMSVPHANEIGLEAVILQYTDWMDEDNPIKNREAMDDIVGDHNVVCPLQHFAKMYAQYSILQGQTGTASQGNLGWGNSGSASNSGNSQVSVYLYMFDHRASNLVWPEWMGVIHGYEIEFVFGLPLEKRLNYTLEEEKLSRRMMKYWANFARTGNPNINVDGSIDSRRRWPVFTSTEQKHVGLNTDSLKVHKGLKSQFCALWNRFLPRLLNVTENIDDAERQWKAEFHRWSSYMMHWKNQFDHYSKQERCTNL

[8] = Inhibition of bovine brain tubulin polymerization after 10 mins by UV-vis spectrophotometric analysis; parameters: species or system Bos taurus
L1210 = assay: Antiproliferative activity against mouse L1210 cells after 2 to 3 days by Coulter counter method; type: functional, cell-based
[9] = molecular target: Receptor tyrosine-protein kinase erbB-2 (Homo sapiens, UniProt P04626); assay: Inhibition of HER2 in human MCF-7 cells after 24 hrs by immunoblotting analysis; type: cell-based
Receptor tyrosine-protein kinase erbB-2, sequence (P04626 whole entry): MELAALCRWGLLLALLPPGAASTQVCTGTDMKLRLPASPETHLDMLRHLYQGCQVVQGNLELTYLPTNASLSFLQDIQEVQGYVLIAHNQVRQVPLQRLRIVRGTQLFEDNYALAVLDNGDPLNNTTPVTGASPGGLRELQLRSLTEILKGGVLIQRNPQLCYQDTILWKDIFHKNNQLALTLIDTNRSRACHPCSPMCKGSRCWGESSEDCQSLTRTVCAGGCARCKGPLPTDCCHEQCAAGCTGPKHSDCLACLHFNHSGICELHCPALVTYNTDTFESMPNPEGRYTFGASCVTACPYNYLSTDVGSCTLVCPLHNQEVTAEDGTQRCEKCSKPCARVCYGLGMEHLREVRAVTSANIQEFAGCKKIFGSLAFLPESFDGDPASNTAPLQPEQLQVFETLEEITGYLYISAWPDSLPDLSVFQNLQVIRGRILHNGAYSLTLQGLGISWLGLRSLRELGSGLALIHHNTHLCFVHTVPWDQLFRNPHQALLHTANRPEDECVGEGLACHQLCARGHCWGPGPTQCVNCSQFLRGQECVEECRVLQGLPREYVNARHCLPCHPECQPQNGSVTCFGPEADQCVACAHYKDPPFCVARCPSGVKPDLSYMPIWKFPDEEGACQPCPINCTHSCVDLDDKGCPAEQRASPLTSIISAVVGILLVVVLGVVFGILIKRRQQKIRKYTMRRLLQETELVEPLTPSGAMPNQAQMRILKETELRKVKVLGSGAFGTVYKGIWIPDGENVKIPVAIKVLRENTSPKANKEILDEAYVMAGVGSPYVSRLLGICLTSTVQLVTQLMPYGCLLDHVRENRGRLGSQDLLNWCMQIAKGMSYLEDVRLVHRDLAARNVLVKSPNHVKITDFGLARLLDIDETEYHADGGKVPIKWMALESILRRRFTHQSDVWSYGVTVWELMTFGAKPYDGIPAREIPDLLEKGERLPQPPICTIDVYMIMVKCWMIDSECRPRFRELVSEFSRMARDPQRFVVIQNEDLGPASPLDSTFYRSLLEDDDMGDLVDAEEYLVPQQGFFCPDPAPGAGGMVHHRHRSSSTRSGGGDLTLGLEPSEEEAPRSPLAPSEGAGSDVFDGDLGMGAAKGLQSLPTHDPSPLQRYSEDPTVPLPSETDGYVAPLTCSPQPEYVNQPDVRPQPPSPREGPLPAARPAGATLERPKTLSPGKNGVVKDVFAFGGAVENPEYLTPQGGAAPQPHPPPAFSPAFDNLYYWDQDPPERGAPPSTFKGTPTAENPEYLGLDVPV

SK-BR-3 = assay: Growth inhibition of human SKBR3 cells; type: functional, cell-based
[10] = Antiproliferative activity against human MDA435/LCC6 cells; type: functional, cell-based; conditions: MDA-435/LCC6
UCLA P-3 = assay: Antiproliferative activity against human UCLA-P3 cells; type: functional, cell-based
MOLT-4 = assay: Antiproliferative activity against human MOLT4 cells; type: functional, cell-based

Nitric oxide synthase, inducible, sequence (Q06518 whole entry): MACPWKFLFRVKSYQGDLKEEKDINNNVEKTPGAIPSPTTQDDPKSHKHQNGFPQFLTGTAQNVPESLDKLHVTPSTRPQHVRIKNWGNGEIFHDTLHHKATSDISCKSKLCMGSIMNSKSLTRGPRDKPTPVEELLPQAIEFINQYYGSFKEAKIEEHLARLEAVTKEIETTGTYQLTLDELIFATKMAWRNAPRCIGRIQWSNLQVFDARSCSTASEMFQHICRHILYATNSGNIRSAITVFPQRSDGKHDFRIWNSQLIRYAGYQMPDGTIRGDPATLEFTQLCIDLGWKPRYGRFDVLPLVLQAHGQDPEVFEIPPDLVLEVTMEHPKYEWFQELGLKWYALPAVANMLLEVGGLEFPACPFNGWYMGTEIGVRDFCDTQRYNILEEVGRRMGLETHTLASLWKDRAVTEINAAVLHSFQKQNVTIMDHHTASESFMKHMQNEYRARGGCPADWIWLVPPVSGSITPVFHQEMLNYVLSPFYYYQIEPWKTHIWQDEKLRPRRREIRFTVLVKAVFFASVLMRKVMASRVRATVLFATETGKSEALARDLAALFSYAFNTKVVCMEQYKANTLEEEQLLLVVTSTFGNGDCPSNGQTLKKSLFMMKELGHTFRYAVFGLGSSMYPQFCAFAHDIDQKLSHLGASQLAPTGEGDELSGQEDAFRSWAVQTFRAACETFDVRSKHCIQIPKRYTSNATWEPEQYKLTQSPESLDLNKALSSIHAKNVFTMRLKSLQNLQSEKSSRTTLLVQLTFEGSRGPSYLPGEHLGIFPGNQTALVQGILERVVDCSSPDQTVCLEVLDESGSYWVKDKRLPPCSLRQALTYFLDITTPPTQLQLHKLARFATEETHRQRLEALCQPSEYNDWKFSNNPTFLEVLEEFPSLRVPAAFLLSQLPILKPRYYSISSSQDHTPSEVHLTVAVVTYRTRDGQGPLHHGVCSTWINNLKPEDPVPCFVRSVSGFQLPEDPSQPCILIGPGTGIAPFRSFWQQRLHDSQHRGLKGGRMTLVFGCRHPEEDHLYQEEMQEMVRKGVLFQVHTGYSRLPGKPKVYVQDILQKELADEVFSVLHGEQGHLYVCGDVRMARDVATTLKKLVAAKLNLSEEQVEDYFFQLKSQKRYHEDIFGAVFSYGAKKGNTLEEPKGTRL

CC1(C)CC[C@]2(C(=O)O)CC[C@]3(C)C(=CC[C@@H]4[C@@]5(C)C=CC(=O)C=C5CC[C@]43C)[C@@H]2C1
IC50 [1]: 900 nM

COC(=O)[C@]1(C)CCC[C@@]2(C)[C@@H]3CC[C@@]4(C)C[C@]3(CC[C@@H]21)C/C4=N\NC(=O)c1cccnc1
MIC [2]: 10 to 20 µg/mL (≈ 22.1 to 44.3 µM)

COC(=O)[C@]1(C)CCC[C@@]2(C)[C@@H]3CC[C@@]4(C)C[C@]3(CC[C@@H]21)C/C4=N\NC(=O)c1ccccn1
MIC [2]: 10 to 20 µg/mL (≈ 22.1 to 44.3 µM)

CC1CCC2CC(Cc3nc4ccccc4c(N)c32)C1 (stereo not drawn)
IC50 (Acetylcholinesterase [3]): 1.3 nM

C[C@@H](C1=CC[C@@H]2[C@@H]3[C@@H](O)[C@H](O)[C@H]4C[C@@H](O)CC[C@]4(C)[C@H]3CC[C@]12C)[C@@H](O)C1=CC(=O)OC1O (stereo partly drawn)
inhibition [4]: 63%
inhibition [5]: 72%
inhibition [6]: 64%

COc1ccc2c3c1O[C@H]1C[C@@H](O)CC[C@@]31CCN(CCCCCCN1CC[C@@]34C=C[C@H](O)C[C@@H]3Oc3c(OC)ccc(c34)C1)C2
IC50 (Acetylcholinesterase [7]): 450 nM

COc1ccc2c3c1O[C@H]1C[C@@H](O)CC[C@@]31CCN(CCCCCCCCCCCC[N+]1=Cc3ccc(OC)c4c3[C@@]3(C=C[C@H](O)C[C@@H]3O4)CC1)C2
IC50 (Acetylcholinesterase [7]): 12 nM

C[C@@]12CC[C@@H]3[C@@](CC[C@H]4[C@@]3(C)CCC[C@@]4(C)C(=O)O)(C/C1=N\NC(=O)c1cccnc1)C2
MIC [2]: 10 to 20 µg/mL (≈ 22.9 to 45.7 µM)

COc1cc2c(ccc1=O)[C@H]1CC[C@]3(C)[C@@H](O)CC[C@H]3[C@@H]1CC2
IC50 [8]: 2100 nM

CCC1CCC2CC(Cc3nc4ccccc4c(N)c32)C1 (stereo not drawn)
IC50 (Acetylcholinesterase [3]): 1.15 nM

Cc1n[nH]c2c(O)cc3c(c12)C(CCl)CN3C(=O)c1cc(C(=O)Nc2cc(C(=O)Nc3cc(C(=O)Nc4cc(C(=O)NCCC(=N)N)n(C)c4)n(C)c3)n(C)c2)n(C)n1 (stereo not drawn)
IC50 (L1210): 7400 nM

CO[C@H]1/C=C\C=C(/C)C(=O)NC2=CC(=O)C(NCCCCNC3=C4C[C@@H](C)C[C@H](OC)[C@H](O)[C@@H](C)/C=C(\C)[C@H](OC(N)=O)[C@@H](OC)/C=C\C=C(/C)C(=O)NC(=CC3=O)C4=O)=C(C[C@@H](C)C[C@H](OC)[C@H](O)[C@@H](C)/C=C(\C)[C@@H]1OC(N)=O)C2=O
IC50 [9]: 60 nM
IC50 (SK-BR-3): 20 nM

CC(=O)O[C@H]1C(=O)[C@@]2(C)[C@H]([C@@H]3OC(=O)c4ccccc4OC/C=C/CC[C@H](NC(=O)OC(C)(C)C)[C@@H](O)C(=O)O[C@@H]4C[C@]3(O)C(C)(C)C1=C4C)[C@]1(OC(C)=O)CO[C@@H]1C[C@@H]2O
IC50 [10]: 390 nM

CCN[C@H]1CO[C@@H](O[C@H]2[C@H](OCOC[C@@]34C#CCCC#C[C@@H]5N(C(=O)OCCS(=O)(=O)c6ccccc6)c6ccccc6[C@]36O[C@@]56CCC4)O[C@H](C)[C@@H](NO[C@H]3C[C@H](O)[C@H](SC(=O)c4c(C)c(I)c(O[C@@H]5O[C@@H](C)[C@H](O)[C@@H](OC)[C@H]5O)c(OC)c4OC)[C@@H](C)O3)[C@@H]2O)C[C@@H]1OC
IC50 (UCLA P-3): 0.1 nM
IC50 (MOLT-4): 160 nM

Source: ChEMBL document CHEMBL4229384, “Success stories of natural product-based hybrid molecules for multi-factorial diseases” (Eur J Med Chem, 2018)
